Patent US20240383915A1, “OXAZEPINE COMPOUNDS AND USES THEREOF IN THE TREATMENT OF CANCER” (Genentech, Inc., priority 2021, published 2024)

Experiments:
KRas(G12V) = KRas(G12V) (Homo sapiens (Human), UniProt P01116, G12V); assay: KRas(G12V) GDP HTRF (BODIPY-GDP exchange TR-FRET); format: biochemical
KRas = KRas (Homo sapiens (Human), UniProt P01116); assay: KRas GDP HTRF (BODIPY-GDP exchange TR-FRET); format: biochemical
Description: KRAS Biochemical Assay—BODIPY-GDP Exchange TR-FRET. Biochemical compound potencies were assessed by evaluating inhibition of SOS1-mediated nucleotide exchange in KRAS G12D. The SOS1-promoted exchange of fluorescently-labeled GDP (BODIPY-GDP) was monitored by time-resolved fluorescence resonance energy transfer (TR-FRET). Compounds solubilized in DMSO were dispensed as concentration series into 384-well white assay plates. […] The reaction was initiated with the addition of 5 μL of 3 nM recombinant human SOS1 and 300 nM BODIPY-GDP in assay buffer. After a 60-minute incubation, the fluorescence was measured with excitation at 337 nm and emission at 490 and 520 nm. The TR-FRET ratio was determined as the fluorescence at 520 nm divided by the fluorescence at 490 nm multiplied by 10,000. […] The normalized TR-FRET results were plotted against compound concentration, and the data fit to a 4-parameter Hill equation to determine the IC50 values.

Sequence of KRas (P01116-2 other isoform, or with tags, fused parts or gaps): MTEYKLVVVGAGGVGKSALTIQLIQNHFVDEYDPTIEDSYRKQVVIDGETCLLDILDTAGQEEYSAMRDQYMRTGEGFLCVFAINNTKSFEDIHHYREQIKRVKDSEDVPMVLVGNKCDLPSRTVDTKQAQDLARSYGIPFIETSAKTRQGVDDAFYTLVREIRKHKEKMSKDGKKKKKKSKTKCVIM
Sequence of KRas(G12V) (P01116-2 other isoform, or with tags, fused parts or gaps G12V): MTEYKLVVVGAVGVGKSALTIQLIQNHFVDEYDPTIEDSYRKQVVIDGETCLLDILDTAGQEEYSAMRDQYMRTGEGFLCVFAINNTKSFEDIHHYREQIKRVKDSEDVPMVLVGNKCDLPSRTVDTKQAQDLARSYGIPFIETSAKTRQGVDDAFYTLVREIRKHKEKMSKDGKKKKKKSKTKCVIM

| SMILES | IC50 (KRas(G12V)) [nM] | IC50 (KRas) [nM] |
| --- | --- | --- |
| Cc1cc(N)nc(-c2c(Cl)c3c4c(nc(OC[C@@H]5CCCN5CC(F)F)nc4c2F)N([C@H](C)c2nccnc2N)CCO3)c1C(F)(F)F (atropisomer, axis not shown) [Example 158b, 3-((R)-1-((S)-9-(6-amino-4-methyl-3-(trifluoromethyl)pyridin-2-yl)-8-chloro-2-(((S)-1-(2,2-difluoroethyl)pyrrolidin-2-yl)methoxy)-10-fluoro-5,6-dihydro-4H-[1,4]oxazepino[5,6,7-de]quinazolin-4-yl)ethyl)pyrazin-2-amine] | 97 | 680 |
| Cc1cc(N)nc(-c2c(Cl)c3c4c(nc(OC[C@@]56CCCN5CC(F)(F)C6)nc4c2F)N([C@H](C)c2nccnc2N)CCO3)c1C(F)(F)F (atropisomer, axis not shown) [Example 165b, 3-((R)-1-((S)-9-(6-amino-4-methyl-3-(trifluoromethyl)pyridin-2-yl)-8-chloro-2-(((S)-2,2-difluorotetrahydro-1H-pyrrolizin-7a(5H)-yl)methoxy)-10-fluoro-5,6-dihydro-4H-[1,4]oxazepino[5,6,7-de]quinazolin-4-yl)ethyl)pyrazin-2-amine] | 890 | 2000 |
| Cc1cc(N)nc(-c2c(Cl)c3c4c(nc(OC[C@]56CCCN5CC(F)(F)C6)nc4c2F)N([C@H](C)c2nccnc2N)CCO3)c1C(F)(F)F (atropisomer, axis not shown) [Example 166b, 3-((R)-1-((S)-9-(6-amino-4-methyl-3-(trifluoromethyl)pyridin-2-yl)-8-chloro-2-(((R)-2,2-difluorotetrahydro-1H-pyrrolizin-7a(5H)-yl)methoxy)-10-fluoro-5,6-dihydro-4H-[1,4]oxazepino[5,6,7-de]quinazolin-4-yl)ethyl)pyrazin-2-amine] | 640 | 1730 |
| Cc1cc(N)nc(-c2c(Cl)c3c4c(nc(OC[C@@H]5C[C@@]6(CN5C)CC6(F)F)nc4c2F)N([C@H](C)c2nccnc2N)CCO3)c1C(F)(F)F (atropisomer, axis not shown) [Example 171b, 3-((R)-1-((S)-9-(6-amino-4-methyl-3-(trifluoromethyl)pyridin-2-yl)-8-chloro-2-(((3S,6S)-1,1-difluoro-5-methyl-5-azaspiro[2.4]heptan-6-yl)methoxy)-10-fluoro-5,6-dihydro-4H-[1,4]oxazepino[5,6,7-de]quinazolin-4-yl)ethyl)pyrazin-2-amine] | 900 | 2090 |
| C[C@H](c1cccnc1N)N1CCOc2c(Cl)c(-c3cccc4sc(N)nc34)c(F)c3nc(OC[C@@]45CCCN4C[C@H](F)C5)nc1c23 (atropisomer, axis not shown; (aS)) [Example 100b, 4-((S)-4-((R)-1-(2-aminopyridin-3-yl)ethyl)-8-chloro-10-fluoro-2-(((2R,7aS)-2-fluorotetrahydro-1H-pyrrolizin-7a(5H)-yl)methoxy)-5,6-dihydro-4H-[1,4]oxazepino[5,6,7-de]quinazolin-9-yl)benzo[d]thiazol-2-amine] | 0.73 | 0.353 |
| Cc1cc(N)nc(-c2c(Cl)c3c4c(nc(OC[C@@H]5CC[C@H]6COCCN65)nc4c2F)N([C@H](C)c2nccnc2N)CCO3)c1C(F)(F)F (atropisomer, axis not shown; (aS)) [Example 104b, 3-((R)-1-((S)-9-(6-amino-4-methyl-3-(trifluoromethyl)pyridin-2-yl)-8-chloro-10-fluoro-2-(((6S,8aS)-hexahydro-1H-pyrrolo[2,1-c][1,4]oxazin-6-yl)methoxy)-5,6-dihydro-4H-[1,4]oxazepino[5,6,7-de]quinazolin-4-yl)ethyl)pyrazin-2-amine] | 16 | 35.2 |

Stronger by IC50 (KRas(G12V)), values ahead:

| IC50 (KRas(G12V)) [nM] | IC50 (KRas) [nM] | SMILES |
| --- | --- | --- |
| 0.7 | 2.2 | Cc1cc(N)nc(-c2c(Cl)c3c4c(nc(OC[C@@H]5C[C@@]6(CN5C)CC6(F)F)nc4c2F)N([C@H](C)c2nccnc2N)CCO3)c1C(F)(F)F (atropisomer, axis not shown) [Example 171a, 3-((R)-1-((R)-9-(6-amino-4-methyl-3-(trifluoromethyl)pyridin-2-yl)-8-chloro-2-(((3S,6S)-1,1-difluoro-5-methyl-5-azaspiro[2.4]heptan-6-yl)methoxy)-10-fluoro-5,6-dihydro-4H-[1,4]oxazepino[5,6,7-de]quinazolin-4-yl)ethyl)pyrazin-2-amine] |
| 0.69 | 2.14 | Cc1cc(N)nc(-c2c(Cl)c3c4c(nc(OC[C@@]56CCCN5CC(F)(F)C6)nc4c2F)N([C@H](C)c2nccnc2N)CCO3)c1C(F)(F)F (atropisomer, axis not shown) [Example 165a, 3-((R)-1-((R)-9-(6-amino-4-methyl-3-(trifluoromethyl)pyridin-2-yl)-8-chloro-2-(((S)-2,2-difluorotetrahydro-1H-pyrrolizin-7a(5H)-yl)methoxy)-10-fluoro-5,6-dihydro-4H-[1,4]oxazepino[5,6,7-de]quinazolin-4-yl)ethyl)pyrazin-2-amine] |
| 0.56 | 2.06 | Cc1cc(N)nc(-c2c(Cl)c3c4c(nc(OC[C@]56CCCN5CC(F)(F)C6)nc4c2F)N([C@H](C)c2nccnc2N)CCO3)c1C(F)(F)F (atropisomer, axis not shown) [Example 166a, 3-((R)-1-((R)-9-(6-amino-4-methyl-3-(trifluoromethyl)pyridin-2-yl)-8-chloro-2-(((R)-2,2-difluorotetrahydro-1H-pyrrolizin-7a(5H)-yl)methoxy)-10-fluoro-5,6-dihydro-4H-[1,4]oxazepino[5,6,7-de]quinazolin-4-yl)ethyl)pyrazin-2-amine] |
| 0.32 | 0.39 | Cc1cc(N)nc(-c2c(Cl)c3c4c(nc(OC[C@H]5CC[C@@H]6CN(CC(F)(F)F)CCN56)nc4c2F)N([C@H](C)c2cccnc2N)CCO3)c1C(F)(F)F (atropisomer, axis not shown; (aR)) [Example 129b, 6-((R)-4-((R)-1-(2-aminopyridin-3-yl)ethyl)-8-chloro-10-fluoro-2-(((6R,8aR)-2-(2,2,2-trifluoroethyl)octahydropyrrolo[1,2-a]pyrazin-6-yl)methoxy)-5,6-dihydro-4H-[1,4]oxazepino[5,6,7-de]quinazolin-9-yl)-4-methyl-5-(trifluoromethyl)pyridin-2-amine] |
| 0.31 | 0.232 | Cc1cc(N)nc(-c2c(Cl)c3c4c(nc(OC[C@@H]5CC[C@H]6CN(CC(F)(F)F)CCN56)nc4c2F)N([C@H](C)c2cccnc2N)CCO3)c1C(F)(F)F (atropisomer, axis not shown; (aS)) [Example 129a, 6-((R)-4-((R)-1-(2-aminopyridin-3-yl)ethyl)-8-chloro-10-fluoro-2-(((6S,8aS)-2-(2,2,2-trifluoroethyl)octahydropyrrolo[1,2-a]pyrazin-6-yl)methoxy)-5,6-dihydro-4H-[1,4]oxazepino[5,6,7-de]quinazolin-9-yl)-4-methyl-5-(trifluoromethyl)pyridin-2-amine] |
| 0.14 | 0.35 | Cc1cc(N)nc(-c2c(Cl)c3c4c(nc(OC[C@H]5CC[C@@H]6CO[C@@H](C)CN56)nc4c2F)N([C@H](C)c2cccnc2N)CCO3)c1C(F)(F)F (atropisomer, axis not shown; (aR)) [Example 93b, 6-((R)-4-((R)-1-(2-aminopyridin-3-yl)ethyl)-8-chloro-10-fluoro-2-(((3S,6R,8aR)-3-methylhexahydro-1H-pyrrolo[2,1-c][1,4]oxazin-6-yl)methoxy)-5,6-dihydro-4H-[1,4]oxazepino[5,6,7-de]quinazolin-9-yl)-4-methyl-5-(trifluoromethyl)pyridin-2-amine] |
| 0.09 | 0.201 | Cc1cc(N)nc(-c2c(Cl)c3c4c(nc(OC[C@@H]5CC[C@H]6CO[C@@H](C)CN56)nc4c2F)N([C@H](C)c2cccnc2N)CCO3)c1C(F)(F)F (atropisomer, axis not shown; (aS)) [Example 93a, 6-((R)-4-((R)-1-(2-aminopyridin-3-yl)ethyl)-8-chloro-10-fluoro-2-(((3S,6S,8aS)-3-methylhexahydro-1H-pyrrolo[2,1-c][1,4]oxazin-6-yl)methoxy)-5,6-dihydro-4H-[1,4]oxazepino[5,6,7-de]quinazolin-9-yl)-4-methyl-5-(trifluoromethyl)pyridin-2-amine] |
| 0.07 | 0.145 | Cc1cc(N)nc(-c2c(Cl)c3c4c(nc(OC[C@@H]5CC[C@H]6CO[C@H](C)CN56)nc4c2F)N([C@H](C)c2cccnc2N)CCO3)c1C(F)(F)F (atropisomer, axis not shown; (aS)) [Example 93c, 6-((R)-4-((R)-1-(2-aminopyridin-3-yl)ethyl)-8-chloro-10-fluoro-2-(((3R,6S,8aS)-3-methylhexahydro-1H-pyrrolo[2,1-c][1,4]oxazin-6-yl)methoxy)-5,6-dihydro-4H-[1,4]oxazepino[5,6,7-de]quinazolin-9-yl)-4-methyl-5-(trifluoromethyl)pyridin-2-amine] |
| 0.03 | 0.03 | C[C@H](c1cccnc1N)N1CCOc2c(Cl)c(-c3cccc4sc(N)nc34)c(F)c3nc(OC[C@@]45CCCN4C[C@H](F)C5)nc1c23 (atropisomer, axis not shown; (aS)) [Example 100a, 4-((R)-4-((R)-1-(2-aminopyridin-3-yl)ethyl)-8-chloro-10-fluoro-2-(((2R,7aS)-2-fluorotetrahydro-1H-pyrrolizin-7a(5H)-yl)methoxy)-5,6-dihydro-4H-[1,4]oxazepino[5,6,7-de]quinazolin-9-yl)benzo[d]thiazol-2-amine] |
